Patent US20030180924A1, “Formulation of certain pyrazolo [3,4,-d] pyrimidines as kinase modulators” (priority 2002, published 2003)
Like-named read-outs stand apart in the source and are kept apart here.

Columns and labels:
[1] = Bioavailability testing, IV treatment (whole blood, LC/MS); assay type: in vivo; details: male CD-1 mice; for AUC: whole blood; for clearance / Vd: mouse, in vivo; for Vd: read-out: Vdss
Method: (§1) Compositions comprising the free base of 1-Na-PP1 and 1-NM-PP1 (Control) and the hydrochloride salt of 1-Na-PP1 and 1-NM-PP1 formulated with Vitamin E TPGS are administered to male CD-1 mice intraperitoneally (IP) and intravenously (IV). Whole blood samples were collected from three animals per time point and prior via cardiac puncture into EDTA tubes and placed on wet ice. Samples were analyzed after drying and predissolution in 0.1:20:80 formic acid:methanol:water by liquid chromatography/mass spectrometry using an Xterra C182.5 micromenter particle size analytical column (15 mm×2.1 mm).

[2] = Bioavailability testing, IP treatment (whole blood, LC/MS); assay type: in vivo; details: 0.793 mg/Kg, male CD-1 mice; for AUC / Cmax: whole blood; for Tmax / bioavailability / half-life / Cmax: mouse, in vivo; for half-life: read-out: T½ (converted)
Method: as §1

SMILES	AUC/Dose ([1]; 0.269 mg/Kg)	T½ ([1]; 0.269 mg/Kg)	AUC ([1]; 0.269 mg/Kg)	clearance ([1]; 0.269 mg/Kg)	Vd ([1]; 0.269 mg/Kg)	AUC/Dose [2]	AUC [2]	Tmax [2]	bioavailability [2]	half-life [2]	Cmax [2]	AUC/Dose ([1]; 0.793 mg/Kg)	T½ ([1]; 0.793 mg/Kg)	AUC ([1]; 0.793 mg/Kg)	clearance ([1]; 0.793 mg/Kg)	Vd ([1]; 0.793 mg/Kg)
CC(C)(C)n1nc(-c2cccc3ccccc23)c2c(N)ncnc21 [1-Na-PP1 (Control), 1-tert-butyl-3-naphthalen-1-yl-1H-pyrazolo[3,4-d]pyrimidin-4-ylamine]	0.12 ng·h/mL/µg/kg	27.6 min	32.14 ng·h/mL	133 mL/min/kg	5.3 L/kg	0.13 ng·h/mL/µg/kg	99.37 ng·h/mL	4.98 min	100%	90.6 min	55 ng/mL	–	–	–	–	–
CC(C)(C)n1nc(Cc2cccc3ccccc23)c2c(N)ncnc21 [1-NM-PP1 (Control)]	–	–	–	–	–	0.16 ng·h/mL/µg/kg	134.84 ng·h/mL	4.98 min	100%	85.2 min	90.6 ng/mL	0.13 ng·h/mL/µg/kg	23.4 min	37.08 ng·h/mL	130 mL/min/kg	4.1 L/kg
